Experimental data as given in patent US10568819B2, “Skin enhancing compositions and methods” (Sytheon Limited, priority 2016, dated 2020).

Tests used:
Type in all cases: cell-based
[1] = system: ITGB3; assay: PCR array gene expression, ITGB3
Text: (§1) In light of the efficacy of the aryl alkanones ire addressing many of the molecular/biomolecular processes damaged by UV exposure, a study was undertaken to assess whether these compounds would also be effective in addressing symptoms associated with non-UV induced skin aging including chronological aging as well as disease conditions that likewise adversely affect skin processes. The studies conducted involves DNA microarray, PCR array, cell culture, enzyme inhibitory activity.

[2] = system: ITGA2; assay: PCR array gene expression, ITGA2
Text: as §1

[3] = system: Keratinocytes; assay: UVA- and UVB-induced formation of immediate CPDs (iCPDs) in keratinocytes; details: 25 μg/ml
Description: Given the significance of CPDs in skin aging and damage, a study was undertaken to determine whether compounds of the present invention have the ability to directly protect the genome of skin cells from the mutagenic effect of UV light as evidenced by CPDs inhibition. The study was conducted in accordance with the method described by Mitchell et. al. [Mitchell, D L, The relative cytotoxicity of (6-4) photoproducts and cyclobutane dimers in mammalian cells. Photochem Photobiol, 48(1):51-57, 1988)] pursuant to which UVA- and UVB-induced formation of immediate CPDs (iCPDs) were determined.

[4] = system: human dermal fibroblasts; assay: UVA-induced plasma membrane disruption (Mitochondrial ToxGlo Assay); details: 24 hour Pre-incubation
Description: (§2) The study was conducted in accordance with the protocols of Berridge et al, (M V Berridge & A S Tan, Characterization of the cellular reduction of 3-(4,5-dimethylthiazol-2-yl)-2,5-diphenyltetrazolium bromide (MTT): subcellular localization, substrate dependence, and involvement of mitochondrial electron transport in MTT reduction, Arch. Biochem. Biophys. 303:474-482, 1993) and Voigt (W Voigt, Sulforhodamine B assay and chemosensitivity, Methods Mol Med, 110:39-48, 2005). Cellular metabolism is determined using the MTT assay to measure the activity of mitochondrial dehydrogenases, such as succinate dehydrogenase, which are implicated in the respiratory electron transport chain in mitochondria [M V Berridge & Tan Biochem Biophys, 303:474-482, 1993]. Additionally, the samples were subject to the Mitochondrial ToxGlo Assay (Promega Technical Manual, G8000 and G8001), which is a cell-based assay method that has been developed to quantify potential mitochondrial dysfunction as a result of xenobiotic exposure, using a sequential-addition, multiplexed chemistry.
(§3) Table 8 presents the result on the effect of UVA radiation on cell metabolism 3 hours after irradiation. As indicated, Compound 1 improves cell metabolism, even at a very low use concentration. Table 9 presents the effect of 24 hour pre-incubation on UVA-induced mitochondrial damage measured by ATP production in human dermal fibroblasts. […] Finally. Table 10 presents the effect of 24 hour pre-incubation on UVA-induced plasma membrane disruption in human dermal fibroblasts. As indicated, Compound 1 almost completely reversed plasma membrane disruption, again at a very low use concentration.

[5] = system: ELN; assay: DNA microarray gene expression, ELN
Text: as §1

[6] = system: COL1A1; assay: DNA microarray gene expression, COL1A1
Text: as §1

[7] = system: VCAN; assay: DNA microarray gene expression, VCAN
Text: as §1

[8] = system: COL4A1; assay: DNA microarray gene expression, COL4A1
Text: as §1

[9] = system: Keratinocyte; assay: UVA-induced delayed formation of CPDs (dCPDs) in keratinocytes; details: 25 μg/ml
Description: A second study was carried out, similar to the first, except that this time the analysis was in assessing the efficacy, if any, of the presently taught aryl alkanones in reducing UVA-induced delayed formation of CPDs (dCPDs).

[10] = system: MMP3; assay: DNA microarray gene expression, MMP3
Text: as §1

[11] = system: COL11A1; assay: PCR array gene expression, COL11A1
Text: as §1

[12] = system: Collagen type 4; assay: Collagen 4 boosting in human dermal fibroblasts; details: HDF, incubation time of 6 days
Description: (§4) In this study, an investigation was performed in relation to the ability, if any, of the aryl alkanones to boost the production of Collagens 1, 3 and 4 proteins. […] In this study, the cells used were human dermal fibroblasts (HDF), passage 12 (Cell Applications, San Diego, Calif.) which underwent an incubation time of 6 days.

[13] = system: COL5A1; assay: PCR array gene expression, COL5A1
Text: as §1

[14] = system: TIMP3; assay: DNA microarray gene expression, TIMP3
Text: as §1

[15] = system: TIMP2; assay: DNA microarray gene expression, TIMP2
Text: as §1

[16] = system: COL6A3; assay: DNA microarray gene expression, COL6A3
Text: as §1

[17] = system: MMP3; assay: PCR array gene expression, MMP3
Text: as §1

[18] = system: VMN; assay: DNA microarray gene expression, VMN
Text: as §1

[19] = system: LAMC1; assay: PCR array gene expression, LAMC1
Text: as §1

[20] = system: Cell #; assay: Cell number (Sulforhodamine B assay) after UVA irradiation; details: 3 hours after irradiation
Description: as §2, §3

[21] = system: COL11A2; assay: DNA microarray gene expression, COL11A2
Text: as §1

[22] = system: Collagen type 1; assay: Collagen 1 boosting in human dermal fibroblasts; details: HDF, incubation time of 6 days
Description: as §4

[23] = system: COL14A1; assay: PCR array gene expression, COL14A1
Text: as §1

In the case of COc1cc(CC(C(C)=O)C(C)=O)ccc1O [Compound 1, Acetyl Zingerone], the “PCR array, ITGB3 gene expression” value [1] is reported as “+2.0”, the “PCR array, ITGA2 gene expression” value [2] is reported as “+1.6” and the “UVA/% Reduction in iCPDs vs. Control” value ([3]; UVA) is reported as 73%. For the same molecule, the “UVB/% Reduction iCPDs vs. Control” value ([3]; UVB) was 44%, the “Plasma membrane disruption-related fluorescence (% Control)” value ([4]; 6.25 ug/ml) was 125 % Control and the “Plasma membrane disruption-related fluorescence (% Control)” value ([4]; 12.5 ug/ml) was 130 % Control. The “Plasma membrane disruption-related fluorescence (% Control)” value ([4]; 25 ug/ml) was 117 % Control, the “Microarray, ELN gene expression” value [5] was “+1.7” and the “Microarray, COL1A1 gene expression” value [6] was “+1.6”. For the same molecule, the “Microarray, VCAN gene expression” value [7] was “+1.7”, the “Microarray, COL4A1 gene expression” value [8] was “+1.6” and the “UVA/% Reduction in dCPDs vs. control, 0 hr. (Reduction in iCPDs)” value ([9]; 0 hr.) was “^+0 hr.: ↓14%”. The “UVA/% Reduction in dCPDs vs. control, 1 hr.” value ([9]; 1 hr.) was 1 hr.: ↓43%, the “UVA/% Reduction in dCPDs vs. control, 2 hr.” value ([9]; 2 hr.) was 2 hr.: ~0% and the “Microarray, MMP3 gene expression” value [10] was −2.4. For the same molecule, the “PCR array, COL11A1 gene expression” value [11] was “+1.9”, the “% Collagen 4 Boosting” value ([12]; 50 μg/ml) was 145% and the “% Collagen 4 Boosting” value ([12]; 100 μg/ml) was 245%. For the same molecule, the “PCR array, COL5A1 gene expression” value [13] was “+2.7”, the “Microarray, TIMP3 gene expression” value [14] was “+5.1” and the “Microarray, TIMP2 gene expression” value [15] was “+1.5”. The “Microarray, COL6A3 gene expression” value [16] was “+1.8”, the “PCR array, MMP3 gene expression” value [17] was −2.5 and the “Microarray, VMN gene expression” value [18] was “+1.7”. For the same molecule, the “PCR array, LAMC1 gene expression” value [19] was “+2.0”, the “Cell # (% Control)” value ([20]; 0.5 μg/ml) was 99 % Control and the “Cell # (% Control)” value ([20]; 2 μg/ml) was 101 % Control. The “Cell # (% Control)” value ([20]; 5 μg/ml) was 95 % Control, the “Microarray, COL11A2 gene expression” value [21] was “+5.2” and the “% Collagen 1 Bosting” value ([22]; 50 μg/ml) was 118%. For the same molecule, the “% Collagen 1 Bosting” value ([22]; 100 μg/ml) was 173% and the “PCR array, COL14A1 gene expression” value [23] was “+2.1”.
